Test results from ChEMBL document CHEMBL5465560, “Selectivity Literature for EUbOPEN Chemogenomic Library” (2024).

Key:
[1] = molecular target: T1, Myosin light chain kinase family member 4 (Homo sapiens) (UniProt Q86YV6); test: Selectivity interaction (KinomeScan (DiscoverX)) EUB0000655a MYLK4; conditions: at 10 µM
T1 sequence (whole entry): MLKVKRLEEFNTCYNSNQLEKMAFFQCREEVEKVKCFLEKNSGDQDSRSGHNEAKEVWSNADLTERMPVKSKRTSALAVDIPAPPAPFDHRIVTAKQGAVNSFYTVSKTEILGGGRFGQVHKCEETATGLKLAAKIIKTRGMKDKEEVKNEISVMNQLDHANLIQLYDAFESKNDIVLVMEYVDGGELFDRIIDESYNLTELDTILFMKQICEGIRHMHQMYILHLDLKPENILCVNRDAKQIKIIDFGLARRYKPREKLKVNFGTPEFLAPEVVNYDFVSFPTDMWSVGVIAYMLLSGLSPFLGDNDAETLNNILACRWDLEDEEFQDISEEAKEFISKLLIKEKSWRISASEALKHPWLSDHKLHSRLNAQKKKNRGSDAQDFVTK

[2] = molecular target: Serine/threonine-protein kinase SMG1 (Homo sapiens) (UniProt Q96Q15); test: Selectivity interaction (ActivX KiNativ screen (kinase selectivity in THP-1 cell lysates)) EUB0000639a SMG1; assay type: subcellular; conditions: lysate, at 1 µM
[3] = molecular target: Proto-oncogene tyrosine-protein kinase receptor Ret (Homo sapiens, UniProt P07949); test: Selectivity interaction (Kinase panel (Invitrogen)) EUB0000639a RET; conditions: at 200 nM
Sequence of Proto-oncogene tyrosine-protein kinase receptor Ret (P07949 whole entry): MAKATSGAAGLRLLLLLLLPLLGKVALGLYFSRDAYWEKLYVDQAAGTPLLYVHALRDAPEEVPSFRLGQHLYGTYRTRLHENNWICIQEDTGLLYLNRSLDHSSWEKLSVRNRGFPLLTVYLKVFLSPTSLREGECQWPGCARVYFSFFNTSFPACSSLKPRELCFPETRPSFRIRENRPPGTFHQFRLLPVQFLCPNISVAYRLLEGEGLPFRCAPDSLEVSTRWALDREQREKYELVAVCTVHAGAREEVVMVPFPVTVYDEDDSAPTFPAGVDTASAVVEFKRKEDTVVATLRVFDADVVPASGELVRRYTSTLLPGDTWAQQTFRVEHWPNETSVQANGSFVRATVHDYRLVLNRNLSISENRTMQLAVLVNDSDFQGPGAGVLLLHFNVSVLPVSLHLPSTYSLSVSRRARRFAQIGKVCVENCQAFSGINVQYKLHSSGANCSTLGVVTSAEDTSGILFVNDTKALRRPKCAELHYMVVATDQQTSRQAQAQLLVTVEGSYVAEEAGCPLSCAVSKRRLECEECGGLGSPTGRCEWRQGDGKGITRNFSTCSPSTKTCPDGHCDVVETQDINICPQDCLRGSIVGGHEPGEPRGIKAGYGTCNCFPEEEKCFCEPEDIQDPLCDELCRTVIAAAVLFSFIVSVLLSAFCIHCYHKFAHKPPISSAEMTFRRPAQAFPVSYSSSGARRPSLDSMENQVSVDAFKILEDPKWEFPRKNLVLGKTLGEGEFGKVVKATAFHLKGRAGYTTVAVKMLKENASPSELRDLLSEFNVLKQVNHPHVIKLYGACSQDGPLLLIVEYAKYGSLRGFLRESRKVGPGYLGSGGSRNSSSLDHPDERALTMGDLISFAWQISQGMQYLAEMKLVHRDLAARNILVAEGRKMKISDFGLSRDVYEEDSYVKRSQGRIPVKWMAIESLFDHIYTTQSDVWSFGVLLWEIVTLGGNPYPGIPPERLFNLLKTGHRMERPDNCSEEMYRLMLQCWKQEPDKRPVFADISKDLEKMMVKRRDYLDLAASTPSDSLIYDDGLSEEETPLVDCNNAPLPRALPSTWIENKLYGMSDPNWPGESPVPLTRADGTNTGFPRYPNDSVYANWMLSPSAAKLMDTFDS

[4] = molecular target: Mitogen-activated protein kinase kinase kinase 20 (Homo sapiens) (UniProt Q9NYL2); test: Selectivity interaction (Kinase panel (Invitrogen)) EUB0000639a MAP3K20; conditions: at 200 nM
Sequence of Mitogen-activated protein kinase kinase kinase 20 (Homo sapiens) (Q9NYL2 2-800 limits assumed): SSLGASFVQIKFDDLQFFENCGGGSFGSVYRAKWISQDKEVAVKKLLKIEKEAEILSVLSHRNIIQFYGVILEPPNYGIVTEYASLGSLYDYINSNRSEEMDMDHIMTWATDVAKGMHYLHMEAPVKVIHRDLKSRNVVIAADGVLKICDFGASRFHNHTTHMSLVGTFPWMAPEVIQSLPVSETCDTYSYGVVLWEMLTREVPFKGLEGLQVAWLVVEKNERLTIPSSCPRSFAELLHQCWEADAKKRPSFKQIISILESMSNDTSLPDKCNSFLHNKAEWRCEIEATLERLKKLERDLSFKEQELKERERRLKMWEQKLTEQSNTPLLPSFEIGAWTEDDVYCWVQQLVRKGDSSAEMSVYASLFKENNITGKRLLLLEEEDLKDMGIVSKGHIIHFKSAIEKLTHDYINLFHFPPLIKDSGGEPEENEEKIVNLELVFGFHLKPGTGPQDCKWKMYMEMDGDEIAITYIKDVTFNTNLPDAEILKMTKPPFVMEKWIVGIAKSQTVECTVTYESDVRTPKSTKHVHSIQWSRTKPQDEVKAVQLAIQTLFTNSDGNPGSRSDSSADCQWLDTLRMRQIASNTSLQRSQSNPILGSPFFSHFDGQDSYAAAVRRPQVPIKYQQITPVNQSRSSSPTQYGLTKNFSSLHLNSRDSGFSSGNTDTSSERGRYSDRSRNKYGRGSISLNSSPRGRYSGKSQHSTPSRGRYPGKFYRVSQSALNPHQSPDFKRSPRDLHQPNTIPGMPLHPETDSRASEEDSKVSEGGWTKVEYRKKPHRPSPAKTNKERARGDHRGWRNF

[5] = test system: Tyrosine-protein kinase ABL1 (Homo sapiens), P00519 [H396P]; test: Selectivity interaction (KinomeScan (DiscoverX)) EUB0000607a ABL1; conditions: at 10 µM
[6] = molecular target: Dual specificity protein kinase CLK2 (Homo sapiens, UniProt P49760); test: Selectivity interaction (SelectScreen profiling (Invitrogen)) EUB0000607a CLK2; conditions: at 2 µM
Sequence of Dual specificity protein kinase CLK2 (P49760 whole entry, looked up): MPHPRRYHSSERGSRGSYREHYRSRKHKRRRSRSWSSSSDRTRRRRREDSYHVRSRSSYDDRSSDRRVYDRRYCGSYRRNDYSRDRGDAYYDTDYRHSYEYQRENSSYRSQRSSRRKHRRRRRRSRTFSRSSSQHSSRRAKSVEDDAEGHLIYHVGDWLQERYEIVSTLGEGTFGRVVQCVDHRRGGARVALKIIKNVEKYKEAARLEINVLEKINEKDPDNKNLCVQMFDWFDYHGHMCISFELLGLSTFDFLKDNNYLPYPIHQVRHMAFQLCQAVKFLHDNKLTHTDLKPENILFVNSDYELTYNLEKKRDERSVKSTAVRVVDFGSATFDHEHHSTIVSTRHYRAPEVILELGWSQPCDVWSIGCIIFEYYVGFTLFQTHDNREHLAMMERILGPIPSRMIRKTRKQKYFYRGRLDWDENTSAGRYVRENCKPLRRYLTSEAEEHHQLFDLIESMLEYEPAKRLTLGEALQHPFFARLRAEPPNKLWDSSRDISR

[7] = molecular target: T2, Serine/threonine-protein kinase Nek3 (Homo sapiens) (UniProt P51956); test: Selectivity interaction (KinomeScan (DiscoverX)) EUB0001049a NEK3; conditions: at 1 µM
T2 sequence (whole entry): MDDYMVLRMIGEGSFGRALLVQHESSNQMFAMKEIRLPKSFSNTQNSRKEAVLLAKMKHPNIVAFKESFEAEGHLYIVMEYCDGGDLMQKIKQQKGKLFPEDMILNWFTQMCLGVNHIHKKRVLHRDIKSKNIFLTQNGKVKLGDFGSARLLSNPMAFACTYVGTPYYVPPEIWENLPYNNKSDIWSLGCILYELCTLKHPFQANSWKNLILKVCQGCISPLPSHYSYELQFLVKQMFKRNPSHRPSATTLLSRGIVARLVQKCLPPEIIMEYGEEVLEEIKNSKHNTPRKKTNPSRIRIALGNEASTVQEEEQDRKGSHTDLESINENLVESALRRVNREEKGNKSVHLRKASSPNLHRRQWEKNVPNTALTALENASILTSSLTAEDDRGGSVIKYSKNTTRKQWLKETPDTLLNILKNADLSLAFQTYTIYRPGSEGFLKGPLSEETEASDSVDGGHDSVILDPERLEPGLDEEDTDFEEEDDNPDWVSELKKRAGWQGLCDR

[8] = molecular target: Serine/threonine-protein kinase PAK 1 (Homo sapiens) (UniProt Q13153); test: Selectivity interaction (KinomeScan (DiscoverX)) EUB0000695a PAK1; conditions: at 100 nM
Sequence of Serine/threonine-protein kinase PAK 1 (Homo sapiens) (Q13153 whole entry, the tested form may be a part): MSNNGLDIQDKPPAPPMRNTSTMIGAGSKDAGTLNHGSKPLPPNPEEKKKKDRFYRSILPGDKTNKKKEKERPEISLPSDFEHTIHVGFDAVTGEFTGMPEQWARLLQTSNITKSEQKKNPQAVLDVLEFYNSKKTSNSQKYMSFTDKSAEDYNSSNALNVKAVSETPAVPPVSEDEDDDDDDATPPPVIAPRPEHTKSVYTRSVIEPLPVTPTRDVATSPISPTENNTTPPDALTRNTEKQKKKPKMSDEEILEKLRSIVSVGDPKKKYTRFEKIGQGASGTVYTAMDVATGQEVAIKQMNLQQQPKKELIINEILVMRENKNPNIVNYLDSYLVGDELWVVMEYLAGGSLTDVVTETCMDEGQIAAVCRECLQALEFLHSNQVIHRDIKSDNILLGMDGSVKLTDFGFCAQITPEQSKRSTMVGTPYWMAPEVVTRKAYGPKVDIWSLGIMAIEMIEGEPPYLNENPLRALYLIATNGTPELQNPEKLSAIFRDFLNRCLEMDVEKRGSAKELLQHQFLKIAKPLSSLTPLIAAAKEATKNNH

[9] = molecular target: T3, Phosphatidylinositol 3-kinase C2 domain-containing subunit gamma (Homo sapiens) (UniProt O75747); test: Selectivity interaction (Kinase panel (Eurofins)) EUB0001564a PIK3C2G; conditions: at 1 µM
T3 sequence (whole entry): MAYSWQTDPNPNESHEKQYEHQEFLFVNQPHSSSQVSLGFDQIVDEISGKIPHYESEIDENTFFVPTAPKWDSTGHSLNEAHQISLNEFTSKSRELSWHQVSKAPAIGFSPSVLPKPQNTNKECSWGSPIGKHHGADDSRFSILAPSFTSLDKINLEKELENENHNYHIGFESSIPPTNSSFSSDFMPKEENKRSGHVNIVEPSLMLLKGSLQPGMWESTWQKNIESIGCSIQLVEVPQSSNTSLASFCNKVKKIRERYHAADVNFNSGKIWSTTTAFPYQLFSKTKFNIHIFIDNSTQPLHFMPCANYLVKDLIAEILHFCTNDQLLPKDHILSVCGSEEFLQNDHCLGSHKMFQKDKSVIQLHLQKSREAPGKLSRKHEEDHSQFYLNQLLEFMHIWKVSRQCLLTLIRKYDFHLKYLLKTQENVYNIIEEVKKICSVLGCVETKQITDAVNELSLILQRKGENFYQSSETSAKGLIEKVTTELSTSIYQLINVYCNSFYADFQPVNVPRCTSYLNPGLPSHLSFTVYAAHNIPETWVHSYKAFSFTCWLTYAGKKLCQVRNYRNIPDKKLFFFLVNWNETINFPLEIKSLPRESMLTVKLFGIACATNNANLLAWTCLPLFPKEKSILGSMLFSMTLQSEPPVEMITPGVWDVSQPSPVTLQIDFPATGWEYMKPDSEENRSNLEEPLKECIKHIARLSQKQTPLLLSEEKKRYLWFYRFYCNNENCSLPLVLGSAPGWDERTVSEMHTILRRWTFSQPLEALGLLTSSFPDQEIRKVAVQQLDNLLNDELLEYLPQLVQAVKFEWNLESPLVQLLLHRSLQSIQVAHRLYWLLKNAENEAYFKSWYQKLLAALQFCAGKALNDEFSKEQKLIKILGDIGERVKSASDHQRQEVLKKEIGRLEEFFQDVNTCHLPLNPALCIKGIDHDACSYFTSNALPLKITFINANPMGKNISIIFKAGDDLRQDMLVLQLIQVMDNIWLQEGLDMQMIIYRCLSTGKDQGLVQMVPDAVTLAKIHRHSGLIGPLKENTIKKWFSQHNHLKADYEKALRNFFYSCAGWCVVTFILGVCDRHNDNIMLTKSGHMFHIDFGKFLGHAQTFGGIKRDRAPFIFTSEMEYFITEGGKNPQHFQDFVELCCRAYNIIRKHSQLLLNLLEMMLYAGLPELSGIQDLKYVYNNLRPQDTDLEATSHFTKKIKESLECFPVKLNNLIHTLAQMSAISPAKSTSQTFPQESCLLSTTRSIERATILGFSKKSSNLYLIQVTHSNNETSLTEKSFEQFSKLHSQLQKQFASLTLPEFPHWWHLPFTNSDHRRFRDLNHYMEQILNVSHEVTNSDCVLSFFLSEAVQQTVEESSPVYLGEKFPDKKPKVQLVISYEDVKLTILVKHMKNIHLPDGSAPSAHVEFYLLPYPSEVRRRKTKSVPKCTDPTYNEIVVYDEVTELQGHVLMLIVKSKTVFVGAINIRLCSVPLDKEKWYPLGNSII

[10] = molecular target: Histone-lysine N-methyltransferase KMT5B (Homo sapiens) (UniProt Q4FZB7); conditions: at 1 µM
Sequence of Histone-lysine N-methyltransferase KMT5B (Homo sapiens) (Q4FZB7 whole entry, looked up): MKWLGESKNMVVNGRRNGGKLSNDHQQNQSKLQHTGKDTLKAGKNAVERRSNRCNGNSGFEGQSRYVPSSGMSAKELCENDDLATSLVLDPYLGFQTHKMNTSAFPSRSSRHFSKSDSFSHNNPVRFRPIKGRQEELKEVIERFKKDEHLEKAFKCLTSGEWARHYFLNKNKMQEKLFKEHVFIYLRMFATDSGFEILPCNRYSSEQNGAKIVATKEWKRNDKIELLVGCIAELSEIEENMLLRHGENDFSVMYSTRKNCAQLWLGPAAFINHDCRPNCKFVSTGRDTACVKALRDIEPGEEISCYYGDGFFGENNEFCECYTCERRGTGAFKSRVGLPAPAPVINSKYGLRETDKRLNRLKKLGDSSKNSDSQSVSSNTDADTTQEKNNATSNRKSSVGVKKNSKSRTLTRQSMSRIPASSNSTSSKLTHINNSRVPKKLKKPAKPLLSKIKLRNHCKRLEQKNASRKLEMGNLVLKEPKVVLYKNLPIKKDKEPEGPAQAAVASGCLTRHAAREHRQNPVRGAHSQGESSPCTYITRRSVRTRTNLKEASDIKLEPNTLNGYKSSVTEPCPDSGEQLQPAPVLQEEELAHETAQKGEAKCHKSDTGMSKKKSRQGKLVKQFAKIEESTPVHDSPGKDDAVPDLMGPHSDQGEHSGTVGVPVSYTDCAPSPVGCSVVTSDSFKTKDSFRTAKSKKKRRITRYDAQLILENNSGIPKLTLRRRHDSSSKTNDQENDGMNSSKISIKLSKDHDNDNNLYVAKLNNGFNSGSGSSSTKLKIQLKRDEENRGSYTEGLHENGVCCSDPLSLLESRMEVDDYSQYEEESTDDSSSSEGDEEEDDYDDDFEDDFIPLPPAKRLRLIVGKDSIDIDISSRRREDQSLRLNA

For `CN(C)CCOc1ccc(-c2nc(-c3ccncc3)c(-c3ccc4c(c3)CC/C4=N\O)[nH]2)cc1`, the % of control [1] was 98%.
`CC[C@@H]1[C@H](F)C(=O)N[C@@H]1COc1nccc2cc(C(N)=O)c(OC)cc12` [ZIMLOVISERTIB] gave a % of inhibition [2] of 4.9%, a % of inhibition [3] of 58.6% and a % of inhibition [4] of 1.12%.
For `CNC(=O)Nc1ccc(-c2nc(N3CC4CCC(C3)O4)c3cnn(C4CCC5(CC4)OCCO5)c3n2)cc1`, the % of control [5] was 100% and the % of inhibition [6] was 0%.
`COc1cc(Nc2nc(C)cc(-c3cnn4nc(OC)ccc34)n2)cc(C(F)(F)F)c1` gave a % of control [7] of 92%.
For `Cc1cc(F)c(C(=O)Nc2cccc(-c3nncn3C(C)C)n2)cc1-n1cnc(C2CC2)c1`, the % of control [8] was 100%.
With `CC[C@@H](Nc1c(C#N)c(-c2ccc(-c3cccc(C)c3F)cc2)nc2cnccc12)C(=O)O` [BAY-091] the % of inhibition [9] was 25.4%.
Molecule `CNCCN1CCC(c2cc(CN(C)C(=O)c3cccc(Oc4ccccc4)c3)ccn2)CC1` has a % activity [10] of over 90%.
